Assay results taken from US20140080706A1, “METHOD OF PREPARING AN AQUEOUS TANK MIX COMPRISING A BASE” (BASF SE, priority 2011, published 2014).

Key:
[1] = typical value; cited from earlier work
[2] = Volatility: loss of dicamba from tank mix on petri dish; format: physicochemical; conditions: 70° C., 24 h
Procedure: The volatility was determined by analyzing the loss of material by HLPL at 70° C. after 24 h at atmospheric pressure. A sample of the aqueous tank mix (300 l/ha) was placed on the petri dish with a defined area (corresponding to a desired field application rate, such as 500 g/ha pesticide).
The application rate was 500 g/ha dicamba (free acid), 1000 g/ha potassium glyphosate, 300 g/ha Genamin® T050 (“Ad2”), 300 g/ha Preference® (“Ad3”) and optionally 250, 500 or 1000 g/ha K2CO3. Deionised water (hardness <1° dH) was used to prepare the samples. Dicamba BAPMA refers to the bis(3-aminopropyl)methylamine salt of dicamba.

pH of tank mix = format: physicochemical
Procedure: According to the invention, an aqueous tank mix which has a tank mix acidity of at least pH 5.0 was prepared. Preferably, the tank mix acidity corresponds to a pH of at least 6.0, better of at least 7.0, more preferably of at least 7.5, especially preferred of at least 8.0 and in particular of at least 8.5. The tank mix acidity may correspond to a pH of up to 13.0, preferably of up to 11.0 and in particular of up to 9.0. The tank mix acidity is usually determined as pH value at 20° C. without dilution of the tank mix.

[3] = test system: Soya (glycine max) Variant Deltapine; assay: Biological evaluation of low phytotoxicity on glyphosate-resistant soya; format: in vivo; conditions: glyphosate tank mixes
Procedure: For the greenhouse tests, maize (cultivar Amadeo) and Chenopodium album was sown or potted in loamy sandy soil to a depth of 1-2 cm. When the plants had reached a growth height of 10 to 25 cm (around 10 to 21 days after sowing), the spray mixtures were applied to the plants in a spraying cabin.
The temperatures in the experimental period, which lasted for 3 to 4 weeks, were between 18-35° C. During this time, the experimental plants received optimum watering, with nutrients being supplied via the water used for watering.
The herbicidal activity was evaluated by awarding scores to the treated plants in comparison to the untreated control plants (Table 1 and 2). The evaluation scale ranges from 0% to 100% activity. 100% activity means the complete death at least of those parts of the plant that are above ground. Conversely, 0% activity means that there were no differences between treated and untreated plants.
The biological evaluation was made as described in Example 6. The tank mixes were applied at a application rate of 375 l/ha (125 or 250 g of glyphosate free acid/ha and 300 g of adjuvant/ha). The adjuvant Ad1 is an aqeuous solution of 200 g/l Genamin® T150 (a tallow fatty amine ethoxylate with 15 EO). The adjuvant Ad2 is Genamin® T050 (a tallow fatty amine ethoxylate with 5 EO).
Soya (glycine max) Variant Deltapine was genetically engineered to resist glyphosate.

What does the source list for `O=C(O)CNCP(=O)(O)O` [glyphosate]?
pKa for the amine [1]: 11.0; pKa for the carboxylic acid [1]: 2.3; pKa for the first phosphonic acid [1]: 0.8; pKa for the second phosphonic acid [1]: 6.0

Which results are given for `COc1c(Cl)ccc(Cl)c1C(=O)O` [Dicamba free acid, dicamba]?
Loss of dicamba, Loss (wt %) ([2]; atmospheric pressure, application rate 500 g/ha dicamba): 80 wt %; pH of tank mix (pH of tank mix; Table 5 tank mixes, 500 g/ha dicamba, 300 l/ha): 3.0

With `CN(CCCN)CCCN.COc1c(Cl)ccc(Cl)c1C(=O)O` [Dicamba BAPMA, bis(3-aminopropyl)methylamine salt of dicamba] as the compound, how does the “Loss of dicamba, Loss (wt %)” value ([2]; 500 g/ha dicamba, 1000 g/ha potassium glyphosate, 300 g/ha Ad2, 300 g/ha Ad3, deionised water) read?
The value was less than 1 wt %.

What about the “pH of tank mix” value (pH of tank mix; Table 6 tank mixes, deionised water (hardness <1° dH)) of the same compound?
Its value is 6.3.

With `O=C([O-])[O-].[K+].[K+]` [Example K2CO3, K2CO3] as the compound, how does the “phytotoxity effect on plants of addition of K2CO3” value [3] read?
The value was “no phytotoxity effect”.
